This note sets out measurements from article PMC10951960, “CGP7930 - An allosteric modulator of GABABRs, GABAARs and inwardly-rectifying potassium channels” (Neuropharmacology, 2023).

The target in assay [1] is T1, GABAB receptors (R1a and R2) (Mus musculus, UniProt Q80T41+Q9WV18).
T1 construct: expressed in transfected cells; host or cells: HEK-293 cells stably expressing Kir3.1/3.2 (GIRK cells)
Kind of assay: GABA-activated K+ currents in GIRK cells (HEK cells stably expressing Kir3.1/3.2, transfected with GABAB R1a and R2), whole-cell patch clamp. It is filed as cell-based, murine. As to the method: CGP55845, and other drugs, were obtained from Merck (Sigma-Aldrich) unless otherwise stated.
All cell culture reagents were acquired from ThermoFisher unless otherwise stated. […] These cells are referred to as GIRK cells throughout the text and were transiently transfected with cDNAs for eGFP, GABAB R1a and R2 in a 1:1:5 ratio applied 1–2 h after cell plating.
Spontaneous inhibitory postsynaptic currents (sIPSCs) were recorded from cultured hippocampal neurons at 12–17 days in vitro (DIV). […] GABABR-activated K^+ currents in cultured neurons were recorded in the additional presence of 2 mM kynurenic acid and 20 μM picrotoxin.
(§1) Borosilicate glass electrodes (3–5 MΩ) were filled with a K^+-based internal solution for recording GIRK currents containing (mM): 120 KCl, 2 MgCl2, 11 EGTA, 30 KOH, 10 HEPES, 1 CaCl2, 1 GTP, 2 ATP, 14 creatine phosphate, pH 7.0. GABAAR currents and sIPSCs were recorded with a Cs-based internal solution containing (mM): 120 CsCl, 1 MgCl2, 11 EGTA, 30 KOH, 10 HEPES, 1 CaCl2, and 2 K2ATP; pH 7.2. […] Cells were held at −60 mV (sIPSCs) or −60/−70 mV (K^+ currents). Voltage clamp recordings were undertaken after optimising series resistance (Rs, <10 MΩ) and compensating for the whole-cell membrane capacitance. Membrane currents were filtered at 5 kHz (−3 dB, 6th pole Bessel, 36 dB/octave) and stored for analysis with Clampex 10.
(§2) Concentration-response curves were generated by measuring the current (I) for each ligand concentration and normalising to the maximal current response (Imax).
These cells were bathed in high external K^+ concentration Krebs to reverse the direction of net K^+ current flow.

The subject of assay [2] is native GABAARs in hippocampal neurons. Kind of assay: muscimol-activated and CGP7930-activated GABAAR currents in hippocampal neurons, Cs+-based internal solution. It counts as cell-based, rat. As to the method: (§3) Briefly, single cells derived from dissected hippocampi were seeded onto glass coverslips coated with poly-D-lysine in a plating medium containing minimum essential media with 5% v/v heat-inactivated FCS, 5% v/v heat-inactivated horse serum, penicillin-G/streptomycin (100 U/100 μg/ml), 2 mM L-glutamine, and 20 mM glucose. Two hr after plating the media was changed to a Neurobasal-A based maintenance media supplemented with 1% v/v B-27, penicillin-G/streptomycin (100 U/100 μg/ml), 0.5% v/v Glutamax and 35 mM glucose.
(§4) Spontaneous inhibitory postsynaptic currents (sIPSCs) were recorded from cultured hippocampal neurons at 12–17 days in vitro (DIV). […] For recording K^+ currents in GIRK cells and neurons, the bath solution was switched to a high K^+ solution containing 25 mM KCl and reduced NaCl (120 mM), to shift the equilibrium potential for K^+ from approximately −90 to −47 mV, thus reversing the direction of K^+ current flux to net inward. GABABR-activated K^+ currents in cultured neurons were recorded in the additional presence of 2 mM kynurenic acid and 20 μM picrotoxin.
as §1, §2

In assay [3] the test system is GABAAR-mediated tonic inhibition in hippocampal neurons. Kind of assay: tonic inhibition: baseline holding current and RMS noise in cultured hippocampal neurons. It counts as cell-based, rat. How it is done:
as §3, §4, §1
For tonic inhibition, to determine the average holding currents, a 30 s continuous holding current recording was sampled every 1 s, discarding epochs that coincided with sIPSCs. Any effect of CGP7930 or bicuculline on the holding current was defined by subtracting the average holding currents in control and during drug application. The baseline root-mean-square current variance (RMS) was calculated before and during drug treatment. This was estimated from a continuous (20 s) current recording, sampled every 100 ms. The median current was calculated every 5 s and values more than twice the standard deviation from the median (usually due to IPSCs) were eliminated. All drugs were applied using a U-tube rapid drug application system, or more slowly via bath perfusion.
We assessed the effect of CGP7930 on tonic inhibition in hippocampal cultured neurons.

The subject of assay [4] is GABAARs in hippocampal neurons. Kind of assay: slow inward current directly activated by CGP7930 in hippocampal neurons in high K+ external solution and its block by GABAAR antagonists. It is filed as cell-based, rat. Particulars: hippocampal neurons, high external K+. How it is done:
as §4
CGP7930 modulation at neuronal GABABRs was also characterised using baclofen-activated GIRK currents in hippocampal cultures similarly bathed in a high external K^+ concentration.

Like-named read-outs stand apart in the source and are kept apart here. Some results are limits rather than exact numbers.

T1 sequence (Q9WV18 20-960): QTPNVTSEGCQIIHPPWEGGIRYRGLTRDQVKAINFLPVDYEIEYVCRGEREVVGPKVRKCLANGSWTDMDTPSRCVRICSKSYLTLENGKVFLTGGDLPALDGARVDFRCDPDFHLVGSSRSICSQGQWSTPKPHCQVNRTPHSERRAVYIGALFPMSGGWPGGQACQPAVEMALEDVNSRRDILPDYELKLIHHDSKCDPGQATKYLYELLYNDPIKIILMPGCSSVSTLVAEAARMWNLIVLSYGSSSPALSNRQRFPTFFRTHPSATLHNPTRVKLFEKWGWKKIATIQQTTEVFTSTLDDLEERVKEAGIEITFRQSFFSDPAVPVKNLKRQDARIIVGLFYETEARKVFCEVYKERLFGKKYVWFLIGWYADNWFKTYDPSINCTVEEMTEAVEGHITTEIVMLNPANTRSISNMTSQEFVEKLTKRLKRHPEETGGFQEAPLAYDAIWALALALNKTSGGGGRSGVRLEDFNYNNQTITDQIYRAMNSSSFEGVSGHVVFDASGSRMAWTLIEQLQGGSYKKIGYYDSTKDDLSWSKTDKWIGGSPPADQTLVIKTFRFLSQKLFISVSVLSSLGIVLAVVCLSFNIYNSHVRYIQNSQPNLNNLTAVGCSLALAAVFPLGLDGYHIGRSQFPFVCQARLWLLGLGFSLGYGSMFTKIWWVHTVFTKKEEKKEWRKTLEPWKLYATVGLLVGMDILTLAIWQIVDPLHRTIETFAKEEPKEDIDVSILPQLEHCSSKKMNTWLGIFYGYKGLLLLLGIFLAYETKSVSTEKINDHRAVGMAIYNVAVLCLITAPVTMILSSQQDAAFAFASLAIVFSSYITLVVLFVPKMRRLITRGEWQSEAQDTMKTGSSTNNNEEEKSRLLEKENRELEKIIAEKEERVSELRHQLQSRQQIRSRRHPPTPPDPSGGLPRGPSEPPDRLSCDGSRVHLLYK
T1 sequence (Q80T41 41-940): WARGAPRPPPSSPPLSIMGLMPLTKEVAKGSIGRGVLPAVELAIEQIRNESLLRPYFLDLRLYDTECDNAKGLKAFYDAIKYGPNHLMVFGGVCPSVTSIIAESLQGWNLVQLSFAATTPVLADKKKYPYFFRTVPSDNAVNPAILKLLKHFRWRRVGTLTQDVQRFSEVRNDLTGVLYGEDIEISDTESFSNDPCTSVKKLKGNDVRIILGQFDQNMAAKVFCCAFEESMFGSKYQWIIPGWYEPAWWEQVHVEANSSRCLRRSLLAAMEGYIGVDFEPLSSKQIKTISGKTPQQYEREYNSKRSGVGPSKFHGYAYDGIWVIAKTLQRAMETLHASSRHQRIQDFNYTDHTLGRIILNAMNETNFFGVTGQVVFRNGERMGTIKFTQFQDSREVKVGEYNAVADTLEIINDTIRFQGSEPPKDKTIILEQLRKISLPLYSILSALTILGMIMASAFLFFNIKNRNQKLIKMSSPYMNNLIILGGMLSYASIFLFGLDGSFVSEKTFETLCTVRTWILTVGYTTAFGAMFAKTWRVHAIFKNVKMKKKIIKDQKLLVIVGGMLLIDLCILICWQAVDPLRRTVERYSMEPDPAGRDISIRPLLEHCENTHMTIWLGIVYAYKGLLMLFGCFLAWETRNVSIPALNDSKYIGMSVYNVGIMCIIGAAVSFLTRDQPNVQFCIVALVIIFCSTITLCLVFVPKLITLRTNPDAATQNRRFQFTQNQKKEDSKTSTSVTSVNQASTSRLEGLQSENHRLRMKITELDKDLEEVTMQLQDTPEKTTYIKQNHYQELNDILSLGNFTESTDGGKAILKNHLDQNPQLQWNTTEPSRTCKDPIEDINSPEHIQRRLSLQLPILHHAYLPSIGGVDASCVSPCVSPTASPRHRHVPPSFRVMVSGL

As for `CC(C)(CO)Cc1cc(C(C)(C)C)c(O)c(C(C)(C)C)c1` [CGP7930, 3-(3′,5′-Di-tert-butyl-4′-hydroxy) phenyl-2,2-dimethylpropanol], the “direct receptor activation of GABABRs” value in assay [1] (GIRK cells, CGP7930 pre-applied alone) is recorded as “no indication of direct receptor activation”. Further, the “potentiation reached, of the maximum GABA current activation of GABABRs” value in assay [1] (GIRK cells, ∼EC20 GABA) is recorded as roughly 30%. Also, the “concentration at which GABABR signalling is inhibited” value in assay [1] (highlights statement) is greater than 3 µM. The EC50 turned out to be 11.1 ± 7 µM in assay [1] (read-out: EC50 for CGP7930 modulating EC20 GABAB receptor activated currents); 5.2 ± 0.1 µM in assay [2] (hippocampal neurons, n = 8, read-out: EC50 for direct activation (CGP7930 alone)); 2 ± 1.1 µM in assay [2] (∼EC10-15 muscimol (0.5 μM), direct effect subtracted, n = 10, read-out: EC50 for CGP7930 potentiation of muscimol response). Besides, the IC50 in assay [1] (read-out: IC50 for CGP7930 modulating EC20 GABAB receptor activated currents) stood at 10.5 ± 2 µM; in assay [2] (∼EC10-15 muscimol (0.5 μM), direct effect subtracted, n = 10, read-out: IC50 of bell-shaped muscimol potentiation curve) it was 7.9 ± 1.8 µM. Further, the “maximal direct activation compared to maximal GABAAR activation by saturating muscimol” value in assay [2] (hippocampal neurons, n = 8) was determined as 42.1 ± 1.8%. Besides, the “Membrane current RMS noise” value in assay [3] (100 nM) is reported as 6.4 ± 0.4 (9) pA; in assay [3] (500 nM), 8.6 ± 0.9 (9) pA; in assay [3] (1 μM), 12.7 ± 1.7 (9) pA; in assay [3] (1 μM + Bic (50 μM bicuculline)) it was 5.7 ± 0.5 (9) pA. Moreover, the “Tonic currents (change in baseline holding current)” value in assay [3] (500 nM to 1 μM) was −441.6 ± 124.7 (9) pA; in assay [3] (1 μM CGP7930 to 50 μM bicuculline (Bic)) it was 372.0 ± 88.5 (9) pA; in assay [3] (100–500 nM) it was −115.6 ± 37.8 (9) pA; in assay [3] (Control to 100 nM) it was −21.41 ± 5.4 (9) pA. The “concentration at which pre-application caused a slow inward current” value in assay [4] is greater than 3 µM.
